From article PMC6222871, “Suppression of Hepatitis C Virus Genome Replication and Particle Production by a Novel Diacylglycerol Acyltransferases Inhibitor” (Molecules : A Journal of Synthetic Chemistry and Natural …, 2018)
Where two headings read alike, the source gives them in different places.

Assays:
[1] = tested on: HCVcc particles (JFH1-NS5A-GFP); test: HCVcc infectivity and time-of-addition assay; format: cell-based, hepatitis C virus; details: pre-treatment (−2 h), co-treatment (0 h), post-treatment (+2 h); dose-dependent
Experimental: In order to test the effects of 10j on the early viral functions, such as the viral entry and uncoating of the viral genome, we performed the “time of addition” experiment by using the cell culture-derived infectious HCVcc particles (JFH1-NS5A-GFP) (Figure 4A).
The time-of-addition assay was conducted as previously reported [38]. Briefly, naïve Huh-7.5 cells were plated in 384-well plates and incubated with serially diluted 10j at specific time points during virus infection: pre-infection treatment; co-infection treatment; post-infection treatment. Afterwards, infected cells were incubated at 37 °C for 3 days in the presence of inhibitors. At 72 h post-infection, HCV infection rates and cytotoxicity were determined by the number of GFP positive cells and Hoechst 33,342 positive cell nuclei, a marker for cell viability, respectively, using fully automated confocal microscopy (Opera, PerkinElmer, Hamburg, Germany). The acquired images were analyzed by in-house developed software. Percentages of HCV inhibition were calculated using 1% DMSO-treated cells and 10 μM of sofosbuvir treated cells and were set to 0% and 100% inhibition, respectively. Experiments were conducted at least two-times independently and in triplicates.

[2] = tested on: HCV genotype 1b (Huh7.5-Bart79I); test: HCV genome replication in sub-genomic replicon Huh7.5-Bart79I cells by real-time RT-PCR
Experimental: (§1) Quantitative real-time RT-PCR analysis to measure levels of HCV RNA and GAPDH was conducted as previously described. The cDNA synthesis and reverse transcription of miR-122 were performed by using Taqman quantitative RT-PCR (qRT-PCR) analysis. Taqmanq RT-PCR components including TaqMan miR122 probe, endogenous control U6 probe, TaqMan® MicroRNA reverse transcription Kit and TaqMan® universal master mix II were purchased from Thermo Fisher Scientific (Waltham, MA, USA)

[3] = tested on: HCV genotype 2a (Huh7.5-J6/JFH1); test: microbe, parasite or virus in culture; details: for EC50: Hepatitis C virus
Description: We previously synthesized and characterized twelve DGAT inhibitors with a different DGAT specificity. […] A922500, a commercially available DGAT-1-specific inhibitor was used as a positive control. In spite of a wealth of knowledge on an essential role of DGAT-1 in the HCV particle assembly and production, less attention has been paid to potential functions of DGATs in other steps of the viral life cycle. Therefore, we decided to examine effects of these twelve DGAT inhibitors on HCV particle production as well as RNA genome replication in parallel. For this purpose, we transfected Huh7.5 cells with in vitro-transcribed genotype 2a HCV RNAs (Huh7.5-J6/JFH1) and treated them with each DGAT inhibitor for 6 and 72 h at 10 μM. HCV genome replication as well as host GAPDH RNA levels was quantitated by a real-time RT-PCR analysis. For assessment of HCV particle production, we harvested and filtered the supernatant from Huh7.5-J6/JFH1 cells treated with DGAT inhibitors and incubated the supernatant with naïve huh7.5 cells for 72 h. Then, infectivity was measured by a real-time RT-PCR analysis.
as §1
Huh7.5-J6/JFH-1 cells were seeded into 6-well plates at a density of 3 × 10^5 cells per well with DMEM containing 10% FBS. After 24 h, they are incubated with either DMSO, increasing concentrations of 10j for 3, 6, 12, 24, 48, and 72 h, or increasing concentrations of A922500 for 6, 12, 24, 48, and 72 h. Total RNAs were extracted from treated cells and virus-containing media were harvested at each time point. Naïve Huh7.5 cells were infected with these virus-containing media after concentration with centricons. Total RNAs were extracted from Huh7.5 cells infected with virus-containing media. qRT-PCR analysis was performed to measure effect of 10j on HCV replication and virus particle production.

[4] = tested on: Huh7.5 cells; test: TG quantification assay in Huh7.5 cells; format: cell-based; details: 8 μM, 72 h
Experimental: Cells were washed with cold PBS, suspended, and homogenized in 1 mL of 5% NP-40/ddH2O solution. Then, homogenized cells were slowly heated to 90 °C for 5 min or until the NP-40 becomes cloudy, then cooled down to room temperature. Previous step was repeated to solubilize all TG. Cells were centrifuged for 2 min at top speed using a microcentrifuge to remove any insoluble material. Samples were diluted 10-fold with ddH2O before proceeding with the assay. […] Samples were added with 50 μL of reaction mix into each well and incubated at room temperature for 60 min while protected from light. Fluorescence was measured by using a fluorometric reader with Ex/Em = 535/590 nm. The amount of TG from standard sample was calculated using the following equation: Ts=Corrected absorbance−(y−intercept)/slope The amount of intracellular TG was calculated using the following equation: Concentration=Ts/Sv*D where the Ts is the amount of TG from standard curve and Sv is the volume of sample added to sample wells and D is the sample dilution factor.

[5] = tested on: Huh7.5-J6/JFH1 cells; test: immunofluorescence of NS3 and LD (BODIPY) in Huh7.5-J6/JFH1 cells; format: cell-based, hepatitis C virus; details: 72 h
Experimental: Based on previous results, we noticed that EC50 values required for inhibition of the HCV genome replication by 10j were around 1–2 μM ranges (Figure 2 and Table 3). However, IC50 value required for inhibition of the enzymatic DGAT activities in vitro by 10j was reported to be higher than 5 μM (Table 2 and Figure 6E). Based on these observations, we hypothesized that inhibition of DGATs by 10j may not play a direct role in suppression of the viral genome replication. To test this hypothesis, we decided to study effects of 10j on DGAT and the viral genome replication in a simultaneous manner. […] Then, the viral NS3 protein and LDs were visualized by using an anti-NS3 antibody and BODIPY, respectively. […] Significant reduction of LD was only seen after treatment of 10j higher than 5 μM. In order to confirm this observation, we decided to utilize another HCV-positive cell—JFH1-NS5A-GFP cells—which were infected with infectious HCV genotype 2a particles with a visually tractable NS5A due to the presence of in-frame-fused GFP protein with NS5A. TGs of these cells were stained with ORO for visualization in parallel. […] In accordance with the previous result, reduction of the NS5A-GFP protein preceded decline of TG biosynthesis (Figure 7D).
Immunofluorescence analysis of Huh7.5-J6/JFH1 or Huh7.5-JFH1-5A-GFP cells in the presence of 10j was conducted as previously described. Fluorescence were examined and captured by Nikon confocal laser scanning microscopic system. LD content was quantified using the ImageJ program.

[6] = tested on: Huh7.5-J6/JFH1 cells; test: immunofluorescence of dsRNA (J2 antibody) and LD (Oil-Red-O) in Huh7.5-J6/JFH1 cells; format: cell-based, hepatitis C virus; details: increasing concentrations, 72 h
Experimental: They were treated with a series of increasing concentrations of 10j for 72 h. […] Since double-stranded (ds) RNAs were regarded as a genuine marker for endogenous viral RNA synthesis due to their roles as intermediates during viral RNA replication, we wished to test effect of 10j on expression and localization of the viral dsRNAs. For this purpose, Huh7.5-J6/JFH1 cells were treated with a series of increasing concentrations of 10j for 72 h. Then, dsRNAs were visualized by using a dsRNA-specific J2 antibody. […] To study effects of 10j on localization of LDs in parallel, LDs were also co-stained in an Oil-Red-O (ORO) dye.
Immunofluorescence analysis of Huh7.5-J6/JFH1 or Huh7.5-JFH1-5A-GFP cells in the presence of 10j was conducted as previously described [35]. Fluorescence were examined and captured by Nikon confocal laser scanning microscopic system. LD content was quantified using the ImageJ program.

[7] = tested on: miR122; test: miR122 RT-PCR in Huh7.5-J6/JFH1 cells; format: cell-based; details: up to 8 μM, 72 h
Description: Since DGATs play an important role in maintaining liver-likeness in hepatocytes, the antiviral effect of 10j might be due to mere loss of this liver-specific character. […] In addition, HNF4α was also reported to be reduced in DGAT1-silenced cell lines. Therefore, we wished to test effects of 10j on HNF4α.

## O=C(NCc1ccco1)c1ccc2[nH]c(COc3ccc(C45CC6CC(CC(C6)C4)C5)cc3)nc2c1 [10j, 2-{[4-(adamant-1yl)phenoxy]methyl)-N-(furan-2-ylmethyl)-1H-benzo[d]imidazole-5-carboxamide]
[1]
  infection of Huh7.5 cells with HCVcc particles: all abrogated
[2]; 8 μM, genotype 1b
  T1/2, time required for reducing the viral RNAs by half: 19.2 h
[2]; Hepatitis C virus, 72 h, read-out: EC50 HCV RNA, subgenomic replicon
  EC50: 3.3 µM
[3]; 8 μM, genotype 2a
  T1/2, time required for reducing the viral RNAs by half: 35.8 h
[3]; 10 μM, 72 h (Figure 1C)
  effect on HCV genome replication: able to block both viral RNA genome replication and particle production
[3]; 3 h, read-out: EC50 on HCV genome replication
  EC50: > 10 µM
[3]; 6 h, read-out: EC50 on HCV genome replication
  EC50: > 10 µM
[3]; 12 h, read-out: EC50 on HCV genome replication
  EC50: 8.5 µM
[3]; 24 h, read-out: EC50 on HCV genome replication
  EC50: 3 µM
[3]; 48 h, read-out: EC50 on HCV genome replication
  EC50: 3.6 µM
[3]; 72 h, read-out: EC50 on HCV genome replication
  EC50: 2.7 µM
[3]; GETYPE2A, 72 h, read-out: EC50 HCV RNA, reporter-free infectious clone
  EC50: 1.6 µM
[3]; GETYPE2A, read-out: EC50 values required for inhibition of the HCV genome replication (summary)
  EC50: 1 to 2 µM
[4]
  reduction of endogenous level of TG: 83%
[5]
  concentration at which the viral NS3 protein started to disappear: 1 µM
  concentration for significant reduction of LD: higher than 5 μM
[5]; up to 2 μM
  LD levels (BODIPY): stayed unaltered
[6]
  amount of dsRNAs: significantly reduced
  expression level of total LDs (Oil-Red-O): dose-dependent reduction
[7]
  expression levels of miR122: increased levels of miR122
